Read-outs that look alike come from different tables or passages of the source.
Columns and labels:
viruses = assay: Disinfection of biosolids with chlorine dioxide: viruses
bacteria = assay: Disinfection of biosolids with chlorine dioxide: bacteria
Ascaris eggs [1] = assay: Disinfection of biosolids with chlorine dioxide alone: Ascaris eggs; settings: concentrations as high as 1000 ppm
Ascaris = settings: biosolids, closed system; cited from earlier work
[2] = 1500 mg/L
Ascaris eggs [3] = settings: for Time to PFRP: closed system
Fecal coliform = settings: ozone at 20–30 mg/L at pH 3.0 for at least two hours; cited from earlier work
poliovirus = settings: ozone at 20–30 mg/L at pH 3.0 for at least two hours; cited from earlier work
C. perfringens spores = settings: only ozone used; cited from earlier work
[4] = 24 h, 500 mg/L

In the case of [O][Cl+][O-] [chlorine dioxide], the inactivation of viruses (viruses) is reported as “capable of inactivating”, the inactivation of bacteria (bacteria) is reported as “capable of inactivating” and the “inactivation of Ascaris eggs” value (Ascaris eggs [1]) is reported as “not able to inactivate”.

In the case of O=NO [nitrous acid], the “concentration capable of Ascaris inactivation” value (Ascaris) is listed as “above 400 mg/L”, the remaining nitrous acid [2] is listed as “below 500 mg/L” and the “remaining HNO2 dose for PFRP to be reached in two hours” value (Ascaris eggs [3]; predicted using Equation 2) is listed as “at least 25.46 mg/g”.

In the case of O=[O+][O-] [ozone], the Fecal coliform reduction (Fecal coliform) is given as “reduced to a non-detectable level”, the inactivation of poliovirus (poliovirus) is given as “at least 90%” and the “inactivation of C. perfringens spores” value (C. perfringens spores) is given as “not effective”.

For O=NO [sodium nitrite], the “Average [NO2] Remaining” value (697 mg/L) was 340 mg/L, the “Average [NO2] Remaining” value (1046 mg/L) was 490 mg/L and the “Average [NO2] Remaining” value (1754 mg/L) was 1150 mg/L. For the same molecule, the “Average [NO2] Remaining” value (2573 mg/L) was 1580 mg/L, the “remaining sodium nitrite level” value [4] was 150 to 250 mg/L and the “Time to PFRP” value (Ascaris eggs [3]; TSS 3.02 %, initial NO2 dose 697 mg/L) was 12 h. The “Time to PFRP” value (Ascaris eggs [3]; TSS 3.02 %, initial NO2 dose 1046 mg/L) was 2 h, the “Time to PFRP” value (Ascaris eggs [3]; TSS 5.54 %, initial NO2 dose 1754 mg/L) was 2 h and the “Time to PFRP” value (Ascaris eggs [3]; TSS 5.54 %, initial NO2 dose 2573 mg/L) was 2 h.
